Laboratory results taken from ChEMBL document CHEMBL5029145, “Discovery of AZD8154, a Dual PI3Kγδ Inhibitor for the Treatment of Asthma” (J Med Chem, 2021).

Legend:
[1] = molecular target: Phosphatidylinositol 4,5-bisphosphate 3-kinase catalytic subunit gamma isoform (Mus musculus, UniProt Q9JHG7); test: Inhibition of PI3Kgamma in C5a-stimulated mouse RAW 264 cells assessed as inhibition of AKT phosphorylation at Ser473 residue Pretreated for 15 mins followed by C5a stimulation measured after 3 mins by HTRF assay; type: cell-based
[2] = Apparent terminal half life in rat administered via inhalation; type: ADME; settings: in vivo, inhaled or intranasal
[3] = molecular target: T1, Phosphatidylinositol 3-kinase C2 domain-containing subunit gamma (Homo sapiens, UniProt O75747); test: Inhibition of PIK3C2G (unknown origin) assessed as reduction in substrate phosphorylation by FRET Adapta assay
T1 sequence (O75747 whole entry): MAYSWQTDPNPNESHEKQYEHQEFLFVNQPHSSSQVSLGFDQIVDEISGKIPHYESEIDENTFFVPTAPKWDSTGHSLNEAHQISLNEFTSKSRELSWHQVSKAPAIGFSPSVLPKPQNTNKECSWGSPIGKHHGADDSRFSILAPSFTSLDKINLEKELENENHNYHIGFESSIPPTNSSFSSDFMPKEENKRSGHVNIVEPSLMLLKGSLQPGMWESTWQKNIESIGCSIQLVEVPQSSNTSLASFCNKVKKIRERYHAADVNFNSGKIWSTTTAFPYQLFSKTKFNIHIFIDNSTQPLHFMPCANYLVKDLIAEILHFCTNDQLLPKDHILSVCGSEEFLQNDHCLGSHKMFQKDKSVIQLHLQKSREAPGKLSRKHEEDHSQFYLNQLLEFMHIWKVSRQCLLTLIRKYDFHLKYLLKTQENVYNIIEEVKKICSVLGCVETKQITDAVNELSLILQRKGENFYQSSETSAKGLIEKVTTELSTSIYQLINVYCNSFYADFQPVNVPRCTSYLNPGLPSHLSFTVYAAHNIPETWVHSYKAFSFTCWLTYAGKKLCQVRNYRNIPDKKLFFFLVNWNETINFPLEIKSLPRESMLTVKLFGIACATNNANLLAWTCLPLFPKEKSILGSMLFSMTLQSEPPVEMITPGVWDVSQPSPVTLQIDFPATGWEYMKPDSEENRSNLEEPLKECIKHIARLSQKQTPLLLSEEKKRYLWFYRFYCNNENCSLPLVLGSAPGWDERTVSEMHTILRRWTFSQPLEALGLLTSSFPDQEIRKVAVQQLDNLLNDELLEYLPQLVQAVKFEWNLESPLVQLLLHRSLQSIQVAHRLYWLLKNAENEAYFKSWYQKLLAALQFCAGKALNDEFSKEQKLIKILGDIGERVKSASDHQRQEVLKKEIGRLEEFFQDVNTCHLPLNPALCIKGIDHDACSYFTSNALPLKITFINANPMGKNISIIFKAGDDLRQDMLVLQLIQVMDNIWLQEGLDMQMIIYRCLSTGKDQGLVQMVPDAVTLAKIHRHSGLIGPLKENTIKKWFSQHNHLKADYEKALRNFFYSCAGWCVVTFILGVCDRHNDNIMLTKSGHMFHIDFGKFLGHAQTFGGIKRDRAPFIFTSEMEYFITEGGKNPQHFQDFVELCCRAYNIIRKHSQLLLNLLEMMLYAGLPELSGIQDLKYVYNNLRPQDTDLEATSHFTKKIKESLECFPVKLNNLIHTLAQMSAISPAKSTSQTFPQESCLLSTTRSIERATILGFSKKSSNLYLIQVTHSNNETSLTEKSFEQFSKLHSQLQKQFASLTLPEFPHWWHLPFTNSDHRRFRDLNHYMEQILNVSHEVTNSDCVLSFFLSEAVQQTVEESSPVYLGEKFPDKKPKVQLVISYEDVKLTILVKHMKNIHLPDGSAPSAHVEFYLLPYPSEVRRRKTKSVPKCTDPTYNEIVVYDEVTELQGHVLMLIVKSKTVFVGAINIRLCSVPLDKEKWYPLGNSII

[4] = Volume of distribution at steady state in rat at 0.5 mg/kg, iv; type: ADME, organism-based; settings: in vivo, read-out: Vdss
[5] = molecular target: Phosphatidylinositol 4-kinase beta (Homo sapiens, UniProt Q9UBF8); test: Inhibition of PI4KB (unknown origin) assessed as reduction in substrate phosphorylation by FRET Adapta assay
Chain of Phosphatidylinositol 4-kinase beta (Q9UBF8 whole entry): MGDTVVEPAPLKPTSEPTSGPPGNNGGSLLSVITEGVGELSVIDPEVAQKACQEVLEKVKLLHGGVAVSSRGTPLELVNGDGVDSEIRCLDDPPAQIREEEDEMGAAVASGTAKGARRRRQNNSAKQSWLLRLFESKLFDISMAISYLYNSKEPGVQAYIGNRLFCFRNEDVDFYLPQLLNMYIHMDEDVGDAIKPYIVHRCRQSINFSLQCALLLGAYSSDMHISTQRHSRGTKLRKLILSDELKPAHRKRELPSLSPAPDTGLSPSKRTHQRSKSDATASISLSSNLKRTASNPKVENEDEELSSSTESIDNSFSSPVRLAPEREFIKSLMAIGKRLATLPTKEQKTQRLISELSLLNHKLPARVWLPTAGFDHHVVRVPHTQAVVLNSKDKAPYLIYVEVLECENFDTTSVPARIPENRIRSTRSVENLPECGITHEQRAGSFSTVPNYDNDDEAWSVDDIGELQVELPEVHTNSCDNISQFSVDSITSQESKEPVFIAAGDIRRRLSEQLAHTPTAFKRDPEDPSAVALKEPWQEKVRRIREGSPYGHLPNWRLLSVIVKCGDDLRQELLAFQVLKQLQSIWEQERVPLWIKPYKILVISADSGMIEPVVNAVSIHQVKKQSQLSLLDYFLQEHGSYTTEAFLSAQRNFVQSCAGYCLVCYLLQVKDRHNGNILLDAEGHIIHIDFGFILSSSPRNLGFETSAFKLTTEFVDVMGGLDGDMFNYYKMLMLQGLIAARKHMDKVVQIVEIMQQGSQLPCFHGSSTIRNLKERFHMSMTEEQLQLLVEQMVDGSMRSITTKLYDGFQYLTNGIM

Chain of Phosphatidylinositol 4,5-bisphosphate 3-kinase catalytic subunit gamma isoform (Q9JHG7 whole entry, canonical isoform): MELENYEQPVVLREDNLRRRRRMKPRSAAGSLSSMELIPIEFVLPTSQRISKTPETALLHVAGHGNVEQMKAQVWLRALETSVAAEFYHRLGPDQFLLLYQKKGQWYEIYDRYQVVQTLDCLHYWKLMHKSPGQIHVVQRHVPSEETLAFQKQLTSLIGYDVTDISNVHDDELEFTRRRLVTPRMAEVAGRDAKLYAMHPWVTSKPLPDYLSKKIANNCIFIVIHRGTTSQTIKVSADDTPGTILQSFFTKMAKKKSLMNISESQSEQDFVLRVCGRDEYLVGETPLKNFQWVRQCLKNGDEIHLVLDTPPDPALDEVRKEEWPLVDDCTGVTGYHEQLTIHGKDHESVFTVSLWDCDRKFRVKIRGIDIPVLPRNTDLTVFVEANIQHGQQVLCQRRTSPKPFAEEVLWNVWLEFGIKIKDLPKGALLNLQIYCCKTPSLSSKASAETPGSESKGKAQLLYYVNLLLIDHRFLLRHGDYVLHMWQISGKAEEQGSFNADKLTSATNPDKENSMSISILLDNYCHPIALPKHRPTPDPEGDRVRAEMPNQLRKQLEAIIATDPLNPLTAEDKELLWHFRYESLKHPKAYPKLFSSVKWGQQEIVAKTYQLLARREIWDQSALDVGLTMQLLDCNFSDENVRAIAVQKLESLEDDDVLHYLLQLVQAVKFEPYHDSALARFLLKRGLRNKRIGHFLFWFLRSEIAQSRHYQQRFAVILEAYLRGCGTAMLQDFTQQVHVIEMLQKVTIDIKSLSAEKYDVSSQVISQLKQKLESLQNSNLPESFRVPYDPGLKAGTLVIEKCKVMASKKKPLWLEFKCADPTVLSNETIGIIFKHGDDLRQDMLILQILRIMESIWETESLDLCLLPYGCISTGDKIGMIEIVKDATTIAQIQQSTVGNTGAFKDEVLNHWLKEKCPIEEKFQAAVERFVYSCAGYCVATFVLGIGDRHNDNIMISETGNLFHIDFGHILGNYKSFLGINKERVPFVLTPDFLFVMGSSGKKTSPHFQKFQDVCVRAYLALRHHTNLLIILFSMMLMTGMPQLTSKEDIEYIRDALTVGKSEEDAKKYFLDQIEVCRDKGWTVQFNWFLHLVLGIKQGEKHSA

IC50 [1]: 0.794 nM
half-life [2]: 7.1 h
IC50 [3]: 63.1 nM
Vd [4]: 4 L/kg
IC50 [5]: 3160 nM
SMILES: Cc1nc(Nc2cccc(N3CCCC3=O)n2)sc1-c1cc2c(c(S(C)(=O)=O)c1)C(=O)N([C@@H](C)C1CC1)C2 [AZD-8154]
